# Reference: US20010011075A1, “5'-SUBSTITUTED-RIBOFURANOSYL BENZIMIDAZOLES AS ANTIVIRAL AGENTS” (priority 1999, published 2001)
# Like-named read-outs stand apart in the source and are kept apart here.
# Experiments:
# [1] = system: HCMV; test: HCMV plaque (focus) reduction assay in HFF cells; format: cell-based, HCMV (Towne strain); settings: HCMV plaque assay, HFF cells, averages from two or more experiments, read-out: 50% Inhibitory Concentration, Antiviral Activity (plaque)
# Description: (§1) A plaque purified isolate, Po, of the Towne strain of HCMV was used in all experiments and was a gift of Dr. Mark Stinski, University of Iowa. The KOS strain of HSV-1 was used and was provided by Dr. Sandra K. Weller, University of Connecticut. Stock preparations of HCMV and HSV-1 were prepared and titered as known to those of skill and the art and described in Turk, S. R. et al. (1987) Antimicrob. Agents Chemother. Vol. 31:544-550 and Shipman, C., Jr., et al. (1990) J. Virol. Methods Vol. 28:101-106, each incorporated herein by reference.
# (§2) HCMV plaque reduction experiments were performed with monolayer cultures of HFF cells by a procedure similar to that referenced above for titration of the viruses and described in Devivar, R. V. et al. (1994) J. Med. Chem. Vol. 37:2942-2949. Activity of compounds against HSV-1 was evaluated using an ELISA assay.
# The effect of compounds of the replication of HCMV was measured using a plaque (focus) reduction assay. For the former, HFF cells in 24-well culture dishes were infected with approximately 50 p.f.u. of HCMV per well using the procedures detailed above. Compounds dissolved in growth medium were added in four to six selected concentrations to duplicate wells following virus adsorption. Following incubation at 37° C. for 7 to 10 days, cell sheets were fixed, stained and microscopic plaques were enumerated as described above. Drug effects were calculated as a percentage of reduction in number of plaques in the presence of each drug concentration compared to the number observed in the absence of drug. DHPG (ganciclovir) was used as a positive control in all experiments.
# (§3) Dose-response relationships can be used to compare drug effects. These are constructed by linearly regressing the percent inhibition of parameters derived in the preceding sections against log drug concentrations. The 50 inhibitory (I50) concentrations were calculated from the regression lines using the methods described by Goldstein. See Goldstein, A., Biostatistics: An Introductory Text, MacMillan, New York, pp. 156-161 (1964), incorporated herein by reference.
# (§4) (2) A plaque assay was used to quantitate anti HCMV activity, an ELISA assay was used to quantitate activity against HSV-1. DHPG (ganciclovir) was used as a positive control for the HCMV assay.
# [2] = system: HSV-1; test: HSV-1 ELISA assay; format: cell-based, HSV-1 (KOS strain); settings: read-out: 50% Inhibitory Concentration, Antiviral Activity (ELISA)
# Description: as §1, §2
# ELISA techniques according to standard procedures were also used to determine activity against HSV-1. Drug effects were calculated as a percentage of the reduction in virus titers in the presence of each drug concentration compared to the titer obtained in the absence of drug. Ganciclovir was used as a positive control in all experiments.
# as §3, §4
# [3] = system: HFF cells; test: Visual cytotoxicity in stationary HFF cells at time of plaque enumeration; format: cell-based, human; settings: visual cytotoxicity on HFF cells at time of HCMV plaque enumeration; read-out: 50% Inhibitory Concentration, Cytotoxicity (HFF)
# Description: (§5) KB cells (available from the American Type Culture Collection (ATCC) 12301 Parklawn Drive, […], Md. 20852 (ATCC CCL 17)), an established human cell line derived from an epidermal oral carcinoma, were grown in minimal essential medium (MEM) (Sigma) with Hanks salts (MEM(H)) supplemented with 5% fetal calf serum. Human foreskin fibroblasts (HFF cells) (provided by the University of Michigan Hospital) and African green monkey kidney cells (BSC-1) (ATTC CCL 26) cells were grown in MEM with Earl salts (MEM(E)) supplemented with 10% fetal bovine serum. Cells were passaged according to conventional procedures and as described in Shipman, C., Jr. et al. (1976) Antimicrob. Agents Chemother. Vol. 9:120 and incorporated herein by reference. Briefly, cells were passaged at 1:2 to 1:10 dilutions according to conventional procedures by using 0.05% trypsin plus 0.02% EDTA in a HEPES buffered salt solution. HFF cells were passaged only at 1:2 dilutions.
# (§6) Two different methods were used to evaluate cytotoxicity of the compounds. First, cytotoxicity produced in stationary HFF cells was determined by microscopical examination of cells not affected by the virus used in the plaque assay. Second the effect of compounds on KB cells during two population doubling times was determined by crystal violet staining and spectrophotometric quantitation of dye eluted from stained cells. This method has been utilized for the analysis of ganciclovir and zidovudine (See Prichard, M. N. et al. Antiviral Res. (1991) Vol. 35:1060-1065).
# (§7) (3) Visual cytotoxicity was scored on HFF cells at the time of HCMV plaque enumeration. Inhibition of KB cell growth was determined as described in the experimental. 3L was used as a positive control for the KB cytotoxicity assay.
# [4] = system: KB cells; test: Inhibition of KB cell growth (crystal violet staining); format: cell-based, human; settings: for IC50: inhibition of KB cell growth, read-out: 50% Inhibitory Concentration, Cytotoxicity (KB)
# Description: as §5, §6, §7
# [5] = system: L1210 cells; test: Antiproliferative activity: growth of L1210 cells; format: cell-based, mouse; settings: for IC50: concentration required to decrease final growth rate of L1210 cells to half of control rate, read-out: 50% Inhibitory Concentration, Antiproliferative Activity
# Description: Antiproliferative activity was evaluated by measuring the effect of the compounds on the growth of L1210 cells, a mouse leukemia cell line which is generally available and can be obtained from Cancer Chemotherapy Center, Japanese Foundation for Cancer Research. Antiproliferative activity was measured using conventional procedures and as described in Wotring, L. L. and Townsend, L. B., (1979) Cancer Res. Vol. 39:3018-3023 and Cory, A. H. et al. (1991) Cancer Comm. Vol. 3:207-212, each incorporated herein by reference.
# (8) The concentration required to decrease the final growth rate of L1210 cells to half of the control rate. All values are averages from two or more experiments.
# [6] = Visual cytotoxicity in stationary HFF cells at time of plaque enumeration; format: cell-based, human; settings: human, stationary human foreskin fibroblasts (HFF cells); visual cytotoxicity on HFF cells at time of HCMV plaque enumeration; read-out: 50% Inhibitory Concentration, Cytotoxicity (HFF)
# Description: as §5, §6, §7
# [7] = Inhibition of KB cell growth (crystal violet staining); format: cell-based, human; settings: human, KB cells (human epidermal oral carcinoma line); inhibition of KB cell growth; read-out: 50% Inhibitory Concentration, Cytotoxicity (KB)
# Description: as §5, §6, §7
# [8] = averages from two or more experiments
# [9] = Human alphaherpesvirus 1, averages from two or more experiments
Structure (SMILES),IC50 [1],"IC50 [2, 8]",IC50 [3],cytotoxicity in growing KB cells (in words) [4],IC50 [4],IC50 [5],antiproliferative effect in L1210 cells (in words) ([5]; statement in text on Table 2),"IC50 [2, 9]",IC50 [6],IC50 at 2 population doubling times [7],"IC50 ([1]; Human betaherpesvirus 5, HFF)"
"CC(=O)O[C@@H]1[C@H](OC(C)=O)[C@@H](CF)O[C@H]1n1c(Cl)nc2cc(Cl)c(Cl)cc21 [Compound 12a, 2,5,6-trichloro-1-(2′,3′-di-O-acetyl-5′-deoxy-5′-fluoro-β-D-ribofuranosyl)benzimidazole]",0.6 µM,> 100 µM,32 µM,little or no cytoxicity,100 µM,–,–,–,–,–,–
"CC(=O)O[C@@H]1[C@H](OC(C)=O)[C@@H](CI)O[C@H]1n1c(Cl)nc2cc(Cl)c(Cl)cc21 [Compound 12d, 2,5,6-trichloro-1-(2′,3′-di-O-acetyl-5′-deoxy-5′-iodo-β-D-ribofuranosyl)benzimidazole]",2.5 µM,> 100 µM,32 µM,–,60 µM,–,–,–,–,–,–
"O[C@@H]1[C@H](O)[C@@H](CCl)O[C@H]1n1c(Cl)nc2cc(Cl)c(Cl)cc21 [Compound 13b, 2,5,6-trichloro-1-(5′-deoxy-5′-chloro-β-D-ribofuranosyl)benzimidazole]",1 µM,> 100 µM,32 µM,–,90 µM,> 100 µM,–,–,–,–,–
"CC1(C)O[C@@H]2[C@H](O1)[C@@H](CCl)O[C@H]2n1c(Cl)nc2cc(Cl)c(Cl)cc21 [Compound 19b, 2,5,6-Trichloro-1-(2′,3′-O-isopropylidene-5′-deoxy-5′-chloro-β-D-ribofuranosyl) benzimidazole]",13.5 µM,> 100 µM,66 µM,–,100 µM,–,–,–,–,–,–
"[N-]=[N+]=NC[C@H]1O[C@@H](n2c(Cl)nc3cc(Cl)c(Cl)cc32)[C@H](O)[C@@H]1O [Compound 17a, 2,5,6-trichloro-1-(5′-deoxy-5′-azido-β-D-ribofuranosyl)benzimidazole]",1.5 µM,> 100 µM,32 µM,–,70 µM,80 µM,–,–,–,–,–
"CC(=O)O[C@@H]1[C@H](OC(C)=O)[C@@H](CN=[N+]=[N-])O[C@H]1n1c(Cl)nc2cc(Cl)c(Cl)cc21 [Compound 16a, 2,5,6-trichloro-1-(2′,3′-di-O-acetyl-5′-deoxy-5′-azido-β-D-ribofuranosyl)benzimidazole]",1.5 µM,> 100 µM,32 µM,–,70 µM,–,–,–,–,–,–
"O[C@@H]1[C@H](O)[C@@H](CBr)O[C@H]1n1c(Cl)nc2cc(Cl)c(Cl)cc21 [Compound 13c, 2,5,6-trichloro-1-(5′-deoxy-5′-bromo-β-D-ribofuranosyl)benzimidazole]",1.5 µM,> 100 µM,32 µM,–,90 µM,–,–,–,–,–,–
"CC(=O)O[C@@H]1[C@H](OC(C)=O)[C@@H](CCl)O[C@H]1n1c(Cl)nc2cc(Cl)c(Cl)cc21 [Compound 12b, 2,5,6-trichloro-1-(2′,3′-di-O-acetyl-5′-deoxy-5′-chloro-β-D-ribofuranosyl)benzimidazole]",1.4 µM,> 100 µM,32 µM,–,90 µM,–,–,–,–,–,–
"CC1(C)O[C@@H]2[C@H](O1)[C@@H](CO)O[C@H]2n1c(Cl)nc2cc(Cl)c(Cl)cc21 [Compound 18, 2,5,6-Trichloro-1-(2′,3′-O-isopropylidene-β-D-ribofuranosyl)benzimidazole]",12.4 µM,–,> 100 µM,–,–,–,–,–,–,–,–
"O[C@@H]1[C@H](O)[C@@H](CF)O[C@H]1n1c(Cl)nc2cc(Cl)c(Cl)cc21 [Compound 13a, 2,5,6-trichloro-1-(5′-deoxy-5′-fluoro-β-D-ribofuranosyl)benzimidazole]",0.5 µM,> 100 µM,32 µM,little or no cytoxicity,> 100 µM,> 100 µM,no antiproliferative effect,–,–,–,–
"Nc1nc(O)c2ncn(COC(CO)CO)c2n1 [DHPG, ganciclovir, reference compound]",–,–,–,–,–,–,–,3.5 µM,> 100 µM,> 100 µM,–
"O[C@@H]1[C@H](O)[C@@H](CI)O[C@H]1n1c(Cl)nc2cc(Cl)c(Cl)cc21 [Compound 13d, 2,5,6-trichloro-1-(5′-deoxy-5′-iodo-β-D-ribofuranosyl)benzimidazole]",3.2 µM,–,32 µM,–,–,–,–,–,–,–,–
"CC1(C)OC2C(CN=[N+]=[N-])OC(n3c(Cl)nc4cc(Cl)c(Cl)cc43)C2O1 [Compound 19a, 2,5,6-Trichloro-1-(2′,3′-O-isopropylidene-5′-deoxy-5′-azido-β-D-ribofuranosyl) benzimidazole]",10.9 µM,–,32 µM,–,–,–,–,–,–,–,–
"CC(=O)O[C@@H]1[C@H](OC(C)=O)[C@@H](CBr)O[C@H]1n1c(Cl)nc2cc(Cl)c(Cl)cc21 [Compound 12c, 2,5,6-trichloro-1-(2′,3′-di-O-acetyl-5′-deoxy-5′-bromo-β-D-ribofuranosyl)benzimidazole]",2.7 µM,> 100 µM,32 µM,–,60 µM,–,–,–,–,–,–
"OC[C@H]1O[C@@H](n2c(Cl)nc3cc(Cl)c(Cl)cc32)[C@H](O)[C@@H]1O [Compound 1, 2,5,6-trichloro-1-(β-D-ribofuranosyl)benzimidazole, reference compound]",–,–,–,–,–,–,–,> 100 µM,238 µM,210 µM,2.76 µM
"CSC[C@H]1O[C@@H](n2c(Cl)nc3cc(Cl)c(Cl)cc32)[C@H](OC(C)=O)[C@@H]1OC(C)=O [Compound 16b, 2,5,6-trichloro-1-(2′,3′-di-O-acetyl-5′-deoxy-5′-methylthio-β-D-ribofuranosyl) benzimidazole]",4.8 µM,> 100 µM,32 µM,–,> 100 µM,–,–,–,–,–,–
